Results from patent US7217723B2, “Heterocyclic compound having oxime group” (Eisai Co., Ltd., priority 2004, dated 2007).

Test system: STAT6 activation
Test: STAT6 activation inhibition test (IL-4-induced alkaline phosphatase STAT6 reporter gene assay)
Assay type: cell-based, human
Details: concentration giving 50% suppression of alkaline phosphatase activity induced by IL-4 (1 ng/mL), 16 hours, 293 cells stably expressing STAT6 gene and STAT6 reporter gene
Protocol: The inhibitory activity on STAT6 activation of the compound according to present invention was evaluated according to the following test.
1) Construction of the STAT6 Reporter Gene
The oligonucleotide of SEQ ID: 1 resuting from three STAT6 binding regions of the human immunoglobulin germline ε gene promoter linked togeter, and the complementary strand thereof were mixed, and after thermal denaturation and annealing, the 5′ and the 3′ ends were respectively cut with the restriction enzymes Kpn I (TaKaRa Shuzo Code No. 1068A) and Xba I (TaKaRa ShuzoCode No. 1093A), and the resulting fragment was cloned into the Kpn I/Xba I site of the pUG-BGH-PLAP vector (described in Molecular Pharmacology, 49: 860–873 1996). In addition, the TK promoter region of the herpesvirus for inducing general transcription factors was cloned into the Xba I/Hind III (TaKaRa ShuzoCode No. 1060A) site of the pUG-BGH-PLAP vector. Then, to collect a stable expression cell strain, the neomycin resistance gene, that is a PGK-neo expression cassette, was incorporated into the Sal I (TaKaRa Shuzo, Code No. 1080A) site of this vector. Cloning of the TK promoter and the PGK-neo expression cassette was carried out according to Molecular Pharmacology, 49: 860–873 1996.
2) Construction of the STAT6 Expression Vector
Using the oligonucleotide of SEQ ID: 2 containing the initiation codon of the STAT6 gene and the oligonucleotide of SEQ ID: 3 containing the stop codon, Total RNA was prepared from human peripheral blood cells with the RNeasy Mini kit (OIAGEN, Code No. 74104). Thereafter, a reverse transcription reaction was carried out with the Takara RNA LA PCR kit (TaKaRa Shuzo, Code No. RR012A) to prepare cDNA, and using the primers of SEQ ID: 2 and 3, a PCR reaction was carried out, to amplify the STAT6 gene.
PCR product was digested with EcoR I (TaKaRa Shuzo, Code No. 1040A) and Xho I (TaKaRa Shuzo, 1094A), thereafter, the digested fragment was isolated on an agarose gel. The isolated fragment was incorporated into the vector fragment derived from the EcoR I/Xho I digestion of the pcDNA3.1 (+) (invtrogen, Code No. U790-20) vector.
3) Transformation and Preparation of a Stable Expression Cell Strain
In a Falcon 6-well plate for tissue culture (Becton Dickinson, Code No. 35-3046), 3.0×10^5 of 293 cells derived from human embryo kidney (American Type Culture Collection) were distributed and cultured overnight. The STAT6 reporter gene (1.5 μg), the STAT6 gene (1.5 μg) that were prepared and lipofectamine (GIBCO BRL, Code No. 18324-012) (20 μL) were mixed in OPTI-MEM culture medium (GIBCO BRL, Code No. 31985-070) (0.3 mL), and allowed to stand at room temperature for 20 minutes. Thereafter, the OPTI-MEM culture medium (1.2 mL) was further added, OPTI-MEM culture medium not containing fetal calf serum was added to washed cells, which were cultured for 2 hours. A culture medium (1.5 mL) containing fetal calf serum was added, and the cells were cultured for 19 more hours. The culture was continued by exchanging the culture medium and adding Geneticin (SIGMA, Code No. G-5013) so as to obtain 1 mg/mL, and cells with drug tolerance were selected. The selected drug tolerant cells were suspended in a culture medium containing 1 mg/mL of Geneticin, and distributed in a 96-well microplate (Becton Dickinson, Code No. 35-3072) so as to obtain 0.5 cells/well to carrry out cloning, and the clones expressing alkaline phosphatase in response to IL-4 were collected.
4) STAT6 Activation Inhibition Test
Cells stably expressing the STAT6 gene and the STAT6 reporter gene, and expressing alkaline phosphatase in response to IL-4 were distributed in a 96-well microplate (Becton Dickinson, Code No. 35-3072) so as to obtain 5000 cells/180 μL/well, and cultured overnight. […]

Row | Molecule | IC50 (Homo sapiens, HEK293) [nM] | IC50 [nM]
1 | CN(C[C@@H](O)c1ccc(F)cc1)S(=O)(=O)c1csc2c1CCC/C2=N/O [Example 13, (7Z)-N-[(2S)-2-(4-Fluorophenyl)-2-hydroxyethyl]-7-(hydroxyimino)-N-methyl-4,5,6,7-tetrahydro-1-benzothiophene-3-sulfonamide] | 0.36 | 
2 | CN(CC(O)c1ccncc1)S(=O)(=O)c1csc2c1CCC/C2=N/O (centres unmarked) [Example 21, (7Z)-7-Hydroxyimino-4,5,6,7-tetrahydro-benzo[b]thiophene-3-sulfonic acid (2-hydroxy-2-pyridine-4-yl-ethyl)-methyl-amide] | 5.6 | 
3 | CC(C)C(=NO)c1cc(S(=O)(=O)N(C)CC(O)c2ccc(F)cc2)c(N)s1 (centres unmarked) [Example 64, 2-Amino-5-(1-hydroxyimino-2-methylpropyl)thiophene-3-sulfonic acid[2-(4-fluorophenyl)-2-hydroxyethyl]-methyl-amide] |  | 40
4 | CCc1cccc(NC(=O)O/N=C2/CCCc3c(S(=O)(=O)N(C)CC(O)c4ccc(F)cc4)csc32)c1 (centres unmarked) [Example 66, (7Z)-7-({[(3-Ethylanilino)carbonyl]oxo}imino)-3-{[[2-(4-fluorophenyl)-2-hydroxyethyl](methyl)amino]sulfonyl}-4,5,6,7-tetrahydro-1-benzothiophene] |  | 16
5 | CN(CC(O)c1ccc(F)cc1)S(=O)(=O)c1csc2c1CCC/C2=N\O (centres unmarked) [Example 2, (7E)-7-Hydroxyimino-4,5,6,7-tetrahydro-benzo[b]thiophene-3-sulfonic acid[2-(4-fluorophenyl)-2-hydroxyethyl]-methyl-amide] |  | 0.22
6 | CN(CC(O)c1ccc(F)cc1)S(=O)(=O)c1csc2c1CCC/C2=N/OC(N)=O (centres unmarked) [Example 87, (7Z)-7-{[(Aminocarbonyl)oxy]imino}-3-{[[2-(4-fluorophenyl)-2-hydroxyethyl](methyl)amino]sulfonyl}-4,5,6,7-tetrahydro-1-benzothiophene] | 0.5 | 
7 | (7Z)-N-{1-(4-Fluorophenyl)-2-[(7-hydroxyimino-4,5,6,7-tetrahydrobe nzo[b]-thiophene-3-sulfonyl)methylamino]ethyl}acetamide [Example 23] |  | 9.5
8 | CN(CC(O)c1ccc(F)cc1)S(=O)(=O)c1c(N)sc2c1CCC/C2=N/O (centres unmarked) [Example 26, (7Z)-2-Amino-7-hydroxyimino-4,5,6,7-tetrahydro-benzo[b]-thiophene-3-sulfonic acid [2-(4-fluorophenyl)-2-hydroxyethyl]-methyl-amide] | 2.6 | 
